Values of other authors, collected in US8946301B2, “Targeting of T-lymphocytes to treat amyotrophic lateral sclerosis” (ALS Therapy Development Institute, priority 2011, dated 2015).
Where a name gives a salt, the structure may show the parent alone.

Assays:
[1] = cited from earlier work
[2] = system: peripheral blood mononuclear cells (lymphocytes and monocytes); conditions: published reports; cited from earlier work
patients with ALS = conditions: Borras-Blasco et al. 1998; cited from earlier work

SMILES: CCCCCCCCc1ccc(CCC(N)(CO)CO)cc1 [Fingolimod hydrochloride]
- solubility in 0.9% saline ([1]; 0.9% saline): soluble
- solubility in aqueous buffers at or above pH 3.0 ([1]; aqueous buffers, pH at or above 3.0): very slightly soluble or practically insoluble
- solubility in aqueous buffers at or below pH 2.0 ([1]; aqueous buffers, pH at or below 2.0): soluble
- solubility in water ([1]; water): > 10%

SMILES: NC(CO)(CO)CCc1ccc(Sc2cccc(OCc3ccccc3)c2)cc1Cl [KRP-203, 2-amino-2-[2-[2-chloro-4-(3-phenylmethoxyphenyl)sulfanylphenyl]ethyl]propane-1,3-diol]
- lymphocyte homing into peripheral lymph nodes [2]: enhanced
- number of granulocytes [2]: not
- number of peripheral blood mononuclear cells (lymphocytes and monocytes) [2]: reduce the number

SMILES: Nc1nc2ccc(OC(F)(F)F)cc2s1 [Riluzole™]
- muscular strength of ALS patients (patients with ALS): does not appear to provide an improvement of muscular strength
